Read-outs that look alike come from different tables or passages of the source.
Columns and labels:
Format in all cases: cell-based, rat
Hepatocytes [1] = assay: Viability of post-anaerobic hepatocytes (fraction of cytosolic lactate dehydrogenase retained intracellularly); conditions: for viability at 5000 µM: Rattus norvegicus, Hepatocyte, 1.5 h, read-out: SURVIVING FRACTION; for MEAN SURVIVING FRACTION: glycine 20 mM, mixture less than 5 mM total, 90 min anaerobic then 90 minute aerobic incubation, untreated .384
Experimental: Both perfusates were introduced in situ at a rate of 20 ml/minute. The liver was dispersed by several passages through a glass pipette tip (4 mm aperture), subsequently filtered through two layers of a 250 micron Nylon mesh, and diluted in 50 ml of a chilled suspension medium of the BSS containing 1.3 mM CaCl2, 1.3 mM MgCl2, 20 mM glucose, and 5 mM pyruvate. The crude suspension was purified by differential centrifugation (100 g per 2 minutes).
The purified cell suspension, consisting primarily of liver parenchymal cells, was washed three times with the cold suspension medium. The final pellet was resuspended at a concentration of 20 mg cell protein (Biuret assay) per milliliter of suspension medium and incubated aerobically for one hour at 24° C. in a 50 ml polypropylene centrifuge tube mounted horizontally on the rocker tray of a shaking water bath (30 strokes per minute). At the end of this incubation period, hepatocyte viability was assessed by trypan blue exclusion.
Samples of the purified cell suspension were then transferred to two 50 ml polypropylene test tubes. One of these tubes was purged of oxygen by flushing the gas phase with argon and then permitting the cells to consume the residual oxygen in the medium. […] This anaerobic suspension was maintained in a 37° C.. water bath without agitation.
The other test tube was supplemented with oxygen by flushing the gas phase with pure oxygen. Diffusion of oxygen from the gas phase to this aerobic reference cell suspension was encouraged by orienting the tube in such a fashion as to maximize surface area and by gently agitating the suspension in the 37° C.. water bath. After 90 minutes, both suspension were removed from the water bath and the cells were washed two times with an ice cold suspension buffer and then resuspended in a warm, aerated suspension medium to a concentration of 10 mg cell protein.
A one milliliter sample of the anaerobic suspension was added to 4 ml of warm, aerated suspension medium containing either no additives (for the untreated cells), or a single amino carboxylic acid at a concentration of 5 mM. Cell viability was assessed in each test population at the end of a subsequent 90 minute aerobic incubation at 37° C. by measuring the fraction of cytosolic lactate dehydrogenase activity retained intracellularly.
Cell viability was assessed as the fraction of the cytosolic enzyme, lactate dehydrogenase, retained intracellularly following a 90 minute aerobic incubation. A minimum of four observations were made and recorded.
(§1) Hepatocytes were incubated anaerobically for 90 minutes, then washed and resuspended in fresh medium containing either no additives (untreated cells), trifluoperazine (25 μM), glycine (20 mM or 150 mg per 100 ml), or a mixture of amino carboxylic acids (total amino carboxylic acid concentration was less than 5 mM or 65 mg per 100 ml). Cell viability was assessed as the fraction of lactate dehydrogenase retained intracellularly following a 90 minute aerobic incubation. A minimum of four observations were made and recorded.
as §1, with “additives (for the untreated” for “additives (untreated”, “cells), neomycin sulfate (10 mM),” for “cells), trifluoperazine (25 μM),”, “or the” for “or a”

glycogen phosphorylase a = assay: Intracellular calcium activity in post-anaerobic hepatocytes, expressed as glycogen phosphorylase a activity; conditions: mmols of PO^−3 liberated from glucose-1-phosphate per 1 million viable post-anaerobic cells; chlorpromazine 25 μM, glycine 20 mM, mixture less than 5 mM total; untreated 165.5
Experimental: Kinase is stimulated by increased intracellular calcium concentration via calmodulin. […] Thera., Vol. 238, pp. 186-191, 1986. […] Cell viability was assessed as the fraction of lactate dehydrogenase retained intracellularly following a 90 minute aerobic incubation. Intracellular calcium activity was assessed in these post-anaerobic cells by the method described in Long and Moore, supra, and expressed in terms of glycogen phosphorylase a activity. […] A minimum of four observations were made and recorded.

Hepatocytes [2] = assay: Viability of post-anaerobic hepatocytes (fraction of cytosolic lactate dehydrogenase retained intracellularly); conditions: glycine 20 mM, mixture less than 5 mM total, 90 min anaerobic then 90 minute aerobic incubation
[3] = single amino carboxylic acid at 5 mM, 90 min anaerobic, then 90 minute aerobic incubation at 37° C., untreated 0.25
[4] = Table 4, neomycin sulfate 10 mM
[5] = Table 2, chlorpromazine 25 μM, mean with standard deviation, untreated .342
[6] = Table 5, alpha tocopherol succinate 100 mg per 100 ml, untreated .352
[7] = Table 6, desferrioxamine 25 μM, untreated .363

`C[C@H](N)C(=O)O` [Alanine, alanine] gave a viability at 5000 µM (Hepatocytes [1]; [3]) of 51%.

For `NCC(=O)O` [Glycine, glycine], the “GLYCOGEN PHOSPHORYLASE A ACTIVITY” value (glycogen phosphorylase a) was 124.8 ± 22.9 mmols, the viability at 5000 µM (Hepatocytes [1]; [3]) was 53% and the “MEAN SURVIVING FRACTION” value (Hepatocytes [1]; Table 3, trifluoperazine 25 μM) was “.739 ± .014”. For the same compound, the “MEAN SURVIVING FRACTION” value (Hepatocytes [1]; [4]) was “.694 ± .033”, the “MEAN SURVIVING FRACTION” value (Hepatocytes [2]; [5]) was “.698 ± .065” and the “MEAN SURVIVING FRACTION” value (Hepatocytes [2]; [6]) was “.749 ± .020”. For the same compound, the “MEAN SURVIVING FRACTION” value (Hepatocytes [2]; [7]) was “.696 ± .038”.

`CN1CCN(CCCN2c3ccccc3Sc3ccc(C(F)(F)F)cc32)CC1` [Trifluoperazine, trifluoperazine, reference compound] was tested, and the “MEAN SURVIVING FRACTION” value (Hepatocytes [1]; Table 3, trifluoperazine 25 μM) was “.550 ± .061”.

Compound `NC(=O)C[C@H](N)C(=O)O` [Asparagine, asparagine] has a viability at 5000 µM (Hepatocytes [1]; [3]) of 54%.

Work on `CC(C)[C@H](N)C(=O)O` [Valine, valine, reference compound] yielded a viability at 5000 µM (Hepatocytes [1]; [3]) of 28%.

With `Cc1c(C)c2c(c(C)c1O)CC[C@@](C)(CCC[C@H](C)CCC[C@H](C)CCCC(C)C)O2` [alpha-tocopherol, reference compound] the “MEAN SURVIVING FRACTION” value (Hepatocytes [2]; [6]) was “.421 ± .087”.

In the case of `CC[C@H](C)[C@H](N)C(=O)O` [Isoleucine, isoleucine, reference compound], the viability at 5000 µM (Hepatocytes [1]; [3]) is reported as 29%.

For `N[C@@H](CO)C(=O)O` [Serine, serine], the viability at 5000 µM (Hepatocytes [1]; [3]) was 40%.

neomycin sulfate [reference compound] was tested, and the “MEAN SURVIVING FRACTION” value (Hepatocytes [1]; [4]) was “.566 ± .043”.

For `CN(C)CCCN1c2ccccc2Sc2ccc(Cl)cc21` [Chlorpromazine, chlorpromazine, reference compound], the “MEAN SURVIVING FRACTION” value (Hepatocytes [2]; [5]) was “.567 ± .055”.

Work on `N[C@@H](Cc1ccc(O)cc1)C(=O)O` [Tyrosine, tyrosine, reference compound] yielded a viability at 5000 µM (Hepatocytes [1]; [3]) of 31%.

Work on `N[C@@H](CCC(=O)O)C(=O)O` [Glutamic acid, glutamic acid] yielded a viability at 5000 µM (Hepatocytes [1]) of 52%.

In the case of `N=C(N)NCCC[C@H](N)C(=O)O` [Arginine, arginine], the viability at 5000 µM (Hepatocytes [1]) is reported as 51%.

In the case of `NC(=O)CC[C@H](N)C(=O)O` [Glutamine, glutamine], the viability at 5000 µM (Hepatocytes [1]; [3]) is reported as 52%.

`CC(C)C[C@H](N)C(=O)O` [Leucine, leucine, reference compound] was tested, and the viability at 5000 µM (Hepatocytes [1]; [3]) was 32%.

In the case of `O=C(O)[C@@H]1CCCN1` [Proline, proline], the viability at 5000 µM (Hepatocytes [1]; [3]) is reported as 49%.

For `CC(=O)N(O)CCCCCNC(=O)CCC(=O)N(O)CCCCCNC(=O)CCC(=O)N(O)CCCCCN` [Desferrioxamine, desferrioxamine, reference compound], the “MEAN SURVIVING FRACTION” value (Hepatocytes [2]; [7]) was “.393 ± .029”.

In the case of `N[C@@H](Cc1c[nH]cn1)C(=O)O` [Histidine, histidine], the viability at 5000 µM (Hepatocytes [1]; [3]) is reported as 50%.

— patent US6380254B2, “Method and composition for treating and preventing pathogenic effects caused by intracellular calcium overload” (Leigh Biotechnology, Inc., priority 1994, dated 2002)
